Measurements from ChEMBL document CHEMBL1140284, “A three-dimensional pharmacophore model for 5-hydroxytryptamine6 (5-HT6) receptor antagonists” (J Med Chem, 2005).

Molecular target: 5-hydroxytryptamine receptor 6 (Homo sapiens, UniProt P50406)
Test: Binding affinity for human 5-hydroxytryptamine 6 receptor

5-hydroxytryptamine receptor 6, sequence (P50406 whole entry): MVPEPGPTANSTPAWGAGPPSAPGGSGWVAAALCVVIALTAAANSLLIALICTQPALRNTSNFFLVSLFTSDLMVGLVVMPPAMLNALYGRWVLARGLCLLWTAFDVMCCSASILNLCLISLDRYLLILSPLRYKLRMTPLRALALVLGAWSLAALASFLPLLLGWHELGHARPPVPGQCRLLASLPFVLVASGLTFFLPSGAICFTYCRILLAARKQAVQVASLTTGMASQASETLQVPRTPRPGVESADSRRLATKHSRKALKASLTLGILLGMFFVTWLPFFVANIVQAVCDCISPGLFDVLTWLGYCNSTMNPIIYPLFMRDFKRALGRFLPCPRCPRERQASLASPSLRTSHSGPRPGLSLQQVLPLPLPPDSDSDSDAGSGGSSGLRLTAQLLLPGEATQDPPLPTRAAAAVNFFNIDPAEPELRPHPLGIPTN

Structure (SMILES) | Ki [nM]
O=S(=O)(c1ccccc1)c1cc2c(N3CCNCC3)cccc2[nH]1 | 0.126
O=S(=O)(Nc1ccc2c(ccn2CCCN2CCCCC2)c1)c1c(Cl)nc2sccn12 | 1000
COc1cc(N)cc(NS(=O)(=O)c2ccc(N)cc2)c1 | 39.8
COc1cccc(-c2noc(-c3[nH]c4ccccc4c3CCN)n2)c1 | 1.26
CC[N+](C)(CC)CCc1cn(S(=O)(=O)c2ccc(NC(C)=O)cc2)c2ccc(OC)cc12 | 251
CCOC(=O)c1[nH]c2ccccc2c1CCN | 20
Nc1ccc(S(=O)(=O)Nc2cccc(N)c2)cc1 | 631
CSc1nc2ccccn2c(=N)c1S(=O)(=O)c1ccccc1 | 3.98
Nc1ccc(S(=O)(=O)Nc2cc(N)nc(Br)c2)cc1 | 50.1
Cc1ccc(S(=O)(=O)n2cc3c4c(cccc42)[C@H](O)[C@@H](N(C)C)C3)cc1 | 7.94
Nc1ccc(S(=O)(=O)Nc2cccc3[nH]ccc23)cc1 | 63.1
CN(C)CCc1cn(S(=O)(=O)c2ccccc2)c2ccccc12 | 3.16
O=S(=O)(c1ccc2ccccc2c1)n1ccc2ccc(N3CCN4C=CCC4C3)cc21 (stereo unspecified) | 0.2
O=S(=O)(c1cccc2ccccc12)n1ccc2ccc(C3=CCN4CCCC4C3)cc21 (stereo unspecified) | 1.26
NCc1cn(S(=O)(=O)c2ccccc2)c2ccccc12 | 3.16
COc1ccc2c(c1)c(CCN(C)C)cn2S(=O)(=O)c1ccccc1 | 2.51

Structure (SMILES) | Ki [nM]
NCCc1c[nH]c2ccc(NS(=O)(=O)c3ccc4c(Cl)cccc4c3)cc12 | 0.2
Nc1ccc(S(=O)(=O)n2c3c(c4ccccc42)CCCC3)cc1 | 31.6
Nc1ccc(S(=O)(=O)Nc2ccc3cc[nH]c3c2)cc1 | 1260
Nc1ccc(S(=O)(=O)c2cc(Br)nc(Br)c2)cc1 | 50.1
O=S(=O)(Nc1ccc2ccn(CCN3CCCC3)c2c1)c1c(Cl)nc2sccn12 | 50.1
COc1ccc2[nH]c(-c3ccccc3)c(CCN(C)C)c2c1 | 50.1
CN(C)CCn1ccc2cc(NS(=O)(=O)c3c(Cl)nc4sccn34)ccc21 | 2
Cc1cn(S(=O)(=O)c2ccc(N)cc2)c2ccccc12 | 12.6
CNc1cc(NS(=O)(=O)c2ccc(N)cc2)cc(NC)n1 | 15.8
CON1CCN(c2ccc(S(=O)(=O)c3cccc4ccccc34)cc2)CC1 | 0.126
COc1ccc2c(c1)c(CCN)cn2S(=O)(=O)c1cccc2ccccc12 | 0.794
COc1ccc(NS(=O)(=O)c2cccc(I)c2)cc1N1CCNCC1 | 0.794
Cc1c(S(=O)(=O)Nc2ccc3ncc(N4CCN(C)CC4)cc3c2)sc2ccc(Cl)cc12 | 79.4
NCc1cn(S(=O)(=O)c2ccc(N)cc2)c2ccccc12 | 6.31
COc1cccc2c(CCN)cn(S(=O)(=O)c3ccc4ccccc4c3)c12 | 5.01
